Data on seven molecules can be found in ChEMBL document CHEMBL1121992, “Synthesis and topical antiinflammatory activity of some steroidal [16 alpha, 17 alpha-d]Isoxazolidines” (1982).

SMILES strings stand for the structures.

The experiment relates to Mus musculus. Nature of the experiment: Topical antiinflammatory activity in mice, expressed as potency was determined. It counts as functional.
As to `CC(=O)OCC(=O)[C@@]12OC(C)(C)O[C@@H]1CC1C3CCC4=CC(=O)C=CC4(C)[C@H]3C(O)CC12C` (some centres not stated), the Potency was found to be 102.

Turning to `CC(=O)OCC(=O)[C@@]12ON(C)C[C@@H]1CC1C3CCC4=CC(=O)C=CC4(C)[C@@]3(F)C(O)CC12C` (some centres not stated), the Potency was determined as 156. `CC(=O)OCC(=O)[C@@]12OC(C)(C)O[C@@H]1CC1C3CCC4=CC(=O)C=CC4(C)[C@@]3(F)C(O)CC12C` (some centres not stated) gave a Potency of 117. For the molecule `CC(=O)OCC(=O)[C@@]12ON(Cc3ccccc3)C[C@@H]1CC1C3CCC4=CC(=O)C=CC4(C)[C@@]3(F)C(O)CC12C` (some centres not stated), the Potency was 62. Molecule `CC(=O)OCC(=O)[C@@]12ON(C)C[C@@H]1CC1C3CCC4=CC(=O)C=CC4(C)[C@H]3C(O)CC12C` (some centres not stated) gave a Potency of 75.

Molecule `CC(=O)OCC(=O)[C@@]12ON(Cc3ccccc3)C[C@@H]1CC1C3CCC4=CC(=O)C=CC4(C)[C@H]3C(O)CC12C` (some centres not stated) showed a Potency of 69. Next, `CC(=O)OCC(=O)[C@@]12N=C(C)O[C@@H]1CC1C3CCC4=CC(=O)C=CC4(C)[C@@]3(F)C(O)CC12C` (some centres not stated): 104.
